Measurements from patent US20080108611A1, “SUBSTITUTED THIENOPYRIMIDINE KINASE INHIBITORS” (priority 2006, published 2008).

Target: T1, EGFR (Homo sapiens, UniProt P00533)
T1 construct: The intracellular portion of EGFR started at nucleotide 2189 (corresponding to amino acid 667) and ended at the termination codon; made in house; host or cells: Sf9 insect cells (baculovirus)
Assay: EGFR Kinase Assay
Assay type: biochemical
Settings: GST-EGFR intracellular portion, 5 μM ATP
Description: The EGFR kinase used was a fusion of Glutathione-S-Transferase (GST) and a PCR amplified intracellular portion of EGFR (NM_005228). The intracellular portion of EGFR started at nucleotide 2189 (corresponding to amino acid 667) and ended at the termination codon. The portion was PCR amplified with primers that added the lambda attB sequences to each end, recombined into an entry vector, then into a GST destination vector (as described in Gateway Technologies Manual by Invitrogen Corporation, Carlsbad, Calif.).
The destination vector was recombined in the DH10BAC strain of bacteria to produce a bacmid. The bacmid was transfected into Sf 9 cells and the supernatant containing the baculovirus was collected. The GSTEGFR protein was purified using large cultures of Sf 9 cells infected with stock virus. After an appropriate period of time, the cells were collected and lysed. The GSTEGFR was then purified from the lysate on Glutathione-Sepharose columns (as described by Amersham Biosciences, Buckinghamshire, United Kingdom).
The EGFR substrate was prepared by biotinylating polyGluTyr (128 mg) (Sigma, St. Louis, Mo.) in a 1×PBS buffer incubated together with a 12-fold molar excess of Sulfo-NHS-LC-Biotin on ice for at least 2 hrs. The free biotin was separated from the biotinylated polyGluTyr on a gel filtration column.
A mixture of a 10× kinase buffer (500 mM Tris at pH 8.0, 100 mM Magnesium Chloride and 1 mM Sodium Vanadate), DTT (1 mM final from 500 mM stock), ATP (5 μM final from 10 mM stock), biotinylated polyGluTyr (10 μg/μL stock), γ-^33P ATP (10 μCi/μL stock) and water was added to each well (90 μL/well) of a Streptavidin Flashplate (Perkin Elmer, Wellesley, M A).
Test compound in 100% DMSO (2 μL) was added to the appropriate wells. Diluted GSTEGFR (1:300 dilution in 50 mM Tris at pH 8.0 and 0.1% bovine serum albumin) (10 μL) was added to the wells to initiate the reactions.
The plates were incubated at 30° C. for 1 hr with shaking. The reacted contents were removed and the plates were sequentially washed three times with a 1×PBS stop buffer (300 μL without Magnesium and Calcium) and 100 mM EDTA. After the final wash, the same stop buffer (200 μL) was added to the wells. The plates were then sealed and read on the TopCount scintillation counter.
Test compounds were assayed in triplicate at 16 concentrations at half-log dilutions starting at 200 uM. A maximum and minimum signal for the assay was determined on each plate. The percent inhibition of a test compound was calculated according to the formula
For a series of test concentrations, the IC50 was derived by graphing percent inhibition against the log of the concentrations tested for a given compound. For those compounds without an IC50, the percent inhibition results are shown at a test concentration of 2 μM.

T1 sequence (P00533 669-1210 limits assumed): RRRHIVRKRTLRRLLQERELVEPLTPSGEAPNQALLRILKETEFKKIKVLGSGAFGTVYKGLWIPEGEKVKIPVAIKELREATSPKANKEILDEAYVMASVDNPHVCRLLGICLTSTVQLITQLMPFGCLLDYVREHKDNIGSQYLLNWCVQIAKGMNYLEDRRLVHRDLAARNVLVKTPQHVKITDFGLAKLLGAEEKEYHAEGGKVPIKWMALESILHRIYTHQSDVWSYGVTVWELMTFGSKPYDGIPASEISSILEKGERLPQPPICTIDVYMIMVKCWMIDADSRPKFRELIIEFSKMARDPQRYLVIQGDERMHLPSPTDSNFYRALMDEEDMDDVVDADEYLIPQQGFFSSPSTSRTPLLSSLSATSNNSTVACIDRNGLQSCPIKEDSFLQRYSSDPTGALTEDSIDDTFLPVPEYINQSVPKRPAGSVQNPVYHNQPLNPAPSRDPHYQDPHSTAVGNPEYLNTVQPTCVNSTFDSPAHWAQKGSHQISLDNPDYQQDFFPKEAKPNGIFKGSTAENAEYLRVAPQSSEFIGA

IC50 [nM] | Structure (SMILES)
0.239 | COc1ccc(NC(=O)c2sc3ncnc(Nc4ccc(F)c(Cl)c4)c3c2N)cc1 [Cpd 1, 5-amino-4-(3-chloro-4-fluoro-phenylamino)-thieno[2,3-d]pyrimidine-6-carboxylic acid (4-methoxy-phenyl)-amide]
0.086 | Nc1c(C(=O)Nc2ccc(CN3CCOCC3)cc2)sc2ncnc(Nc3ccc(F)c(Cl)c3)c12 [Cpd 2, 5-amino-4-(3-chloro-4-fluoro-phenylamino)-thieno[2,3-d]pyrimidine-6-carboxylic acid (4-morpholin-4-ylmethyl-phenyl)-amide]
0.109 | COc1ccc(NC(=O)c2sc3ncnc(Nc4ccc(F)c(Cl)c4)c3c2N)cc1OC [Cpd 3, 5-amino-4-(3-chloro-4-fluoro-phenylamino)-thieno[2,3-d]pyrimidine-6-carboxylic acid (3,4-dimethoxy-phenyl)-amide]
0.606 | Nc1c(C(=O)NCCN2CCOCC2)sc2ncnc(Nc3ccc(F)c(Cl)c3)c12 [Cpd 4, 5-amino-4-(3-chloro-4-fluoro-phenylamino)-thieno[2,3-d]pyrimidine-6-carboxylic acid (2-morpholin-4-yl-ethyl)-amide]
0.043 | CN(C)CCCNS(=O)(=O)c1ccc(NC(=O)c2sc3ncnc(Nc4ccc(F)c(Cl)c4)c3c2N)cc1 [Cpd 5, 5-amino-4-(3-chloro-4-fluoro-phenylamino)-thieno[2,3-d]pyrimidine-6-carboxylic acid [4-(3-dimethylamino-propylsulfamoyl)-phenyl]-amide]
0.741 | Nc1c(C(=O)Nc2ccc(Oc3ccccc3)cc2)sc2ncnc(Nc3ccc(F)c(Cl)c3)c12 [Cpd 6, 5-amino-4-(3-chloro-4-fluoro-phenylamino)-thieno[2,3-d]pyrimidine-6-carboxylic acid (4-phenoxy-phenyl)-amide]
0.598 | Nc1c(C(=O)Nc2ccc(OC(F)(F)F)cc2)sc2ncnc(Nc3ccc(F)c(Cl)c3)c12 [Cpd 7, 5-amino-4-(3-chloro-4-fluoro-phenylamino)-thieno[2,3-d]pyrimidine-6-carboxylic acid (4-trifluoromethoxy-phenyl)-amide]
0.14 | CC(C)Oc1ccc(NC(=O)c2sc3ncnc(Nc4ccc(F)c(Cl)c4)c3c2N)cc1 [Cpd 8, 5-amino-4-(3-chloro-4-fluoro-phenylamino)-thieno[2,3-d]pyrimidine-6-carboxylic acid (4-isopropoxy-phenyl)-amide]
0.147 | COc1ccc(NC(=O)c2sc3ncnc(Nc4ccc(F)c(Cl)c4)c3c2N)cn1 [Cpd 9, 5-amino-4-(3-chloro-4-fluoro-phenylamino)-thieno[2,3-d]pyrimidine-6-carboxylic acid (6-methoxy-pyridin-3-yl)-amide]
0.196 | Nc1c(C(=O)Nc2ccc(N3CCOCC3)cc2)sc2ncnc(Nc3ccc(F)c(Cl)c3)c12 [Cpd 10, 5-amino-4-(3-chloro-4-fluoro-phenylamino)-thieno[2,3-d]pyrimidine-6-carboxylic acid (4-morpholin-4-yl-phenyl)-amide]
0.177 | COc1ccc(CNC(=O)c2sc3ncnc(Nc4ccc(F)c(Cl)c4)c3c2N)cc1OC [Cpd 11, 5-amino-4-(3-chloro-4-fluoro-phenylamino)-thieno[2,3-d]pyrimidine-6-carboxylic acid 3,4-dimethoxy-benzylamide]
0.22 | COc1ccc(CCNC(=O)c2sc3ncnc(Nc4ccc(F)c(Cl)c4)c3c2N)cc1OC [Cpd 12, 5-amino-4-(3-chloro-4-fluoro-phenylamino)-thieno[2,3-d]pyrimidine-6-carboxylic acid [2-(3,4-dimethoxy-phenyl)-ethyl]-amide]
0.053 | Nc1c(C(=O)Nc2ccc(CN3CCCCC3)cc2)sc2ncnc(Nc3ccc(F)c(Cl)c3)c12 [Cpd 13, 5-amino-4-(3-chloro-4-fluoro-phenylamino)-thieno[2,3-d]pyrimidine-6-carboxylic acid (4-piperidin-1-ylmethyl-phenyl)-amide]
0.034 | CN(C)Cc1ccc(NC(=O)c2sc3ncnc(Nc4ccc(F)c(Cl)c4)c3c2N)cc1 [Cpd 14, 5-amino-4-(3-chloro-4-fluoro-phenylamino)-thieno[2,3-d]pyrimidine-6-carboxylic acid (4-dimethylaminomethyl-phenyl)-amide]
0.064 | CN(CCc1ccc(NC(=O)c2sc3ncnc(Nc4ccc(F)c(Cl)c4)c3c2N)cc1)C1CCOCC1 [Cpd 15, 5-amino-4-(3-chloro-4-fluoro-phenylamino)-thieno[2,3-d]pyrimidine-6-carboxylic acid (4-{2-[methyl-(tetrahydro-pyran-4-yl)-amino]-ethyl}-phenyl)-amide]
0.035 | CN(Cc1ccc(NC(=O)c2sc3ncnc(Nc4ccc(F)c(Cl)c4)c3c2N)cc1)C[C@H]1CCCO1 [Cpd 16, 5-amino-4-(3-chloro-4-fluoro-phenylamino)-thieno[2,3-d]pyrimidine-6-carboxylic acid [4-({methyl-[(2R)-tetrahydro-furan-2-ylmethyl]-amino}-methyl)-phenyl]-amide]
0.062 | CN(Cc1ccc(NC(=O)c2sc3ncnc(Nc4ccc(F)c(Cl)c4)c3c2N)cc1)C[C@@H]1CCCO1 [Cpd 17, 5-amino-4-(3-chloro-4-fluoro-phenylamino)-thieno[2,3-d]pyrimidine-6-carboxylic acid [4-({methyl-[(2S)-tetrahydro-furan-2-ylmethyl]-amino}-methyl)-phenyl]-amide]
0.067 | CN1CCN(Cc2ccc(NC(=O)c3sc4ncnc(Nc5ccc(F)c(Cl)c5)c4c3N)cc2)CC1 [Cpd 18, 5-amino-4-(3-chloro-4-fluoro-phenylamino)-thieno[2,3-d]pyrimidine-6-carboxylic acid [4-(4-methyl-piperazin-1-ylmethyl)-phenyl]-amide]
